Source: patent publication US5900231A, “Silicone-containing derivatives of salicylic acid which have desquamating properties” (L'Oreal, priority 1996, dated 1999)

Assays:
keratinocytes = assay: in vitro test of the efficacy of the desquamation on keratinocytes (release of corneocytes, flow cytometry); type: cell-based; conditions: for cell detachment index (difference between T60 and T0; release of corneocytes relative to control): 60 minutes after addition, relative to control without test product, equal concentrations; for desquamating activity compared with 5-n-octanoylsalicylic acid: at a concentration equal to that of 5-n-octanoylsalicylic acid
Method: An in vitro test of the efficacy of the desquamation was carried out on keratinocytes using 5-n-octanoylsalicylic acid (compound C1), 2-hydroxy4-(3-trimethylsilanylpropyloxy)benzoic acid (compound C2) and 2-hydroxy-5-(3-trimethylsilanylpropyloxy)benzoic acid (compound C3). C1 is a known powerful desquamating active agent, but not part of the present invention. C2 and C3 are compounds of the present invention.
The principle of the test rests on the fact that desquamation is known to induce the release of corneocytes. The desquamating power of the test product should be proportionately greater the larger the number of corneocytes released.
The test procedure was as follows: keratinocytes were obtained by separating the epidermis from skin biopsies, and these keratinocytes were dissociated by enzymatic action with trypsin and cultured at a concentration of 2×10^5 cells/ml. Growth and differentiation of the keratinocytes were obtained by culturing for 10 to 20 days in specific medium.
Next, after removing the culture medium, the test product was added and the activity of the product evaluated. To do this, two samples were taken at T0 and T60, i.e., before addition of the product and 60 minutes after this addition, and the samples thus taken were analysed on a flow cytometer to count the population of corneocytes.
The cell detachment index was determined by the difference between T60 and T0.
The same measurement was taken for a control containing no test product since the experiment inevitably produces the release of corneocytes, even in the absence of active agent. The variation of the control arbitrarily set the standard at 100%.

[1] = solubility in MIGLYOL 812 (mixture of caprylic acid and capric acid triglyceride); type: physicochemical
Method: The solubility of the silicon-containing derivatives of salicylic acid according to the invention in organic media was evaluated by comparing the solubility of 5-n-octanoylsalicylic acid with inventive compounds:
in a mixture of caprylic acid and capric acid triglyceride, marketed under the name MIGLYOL 812 by the company Huls.

SMILES | cell detachment index (difference between T60 and T0; release of corneocytes relative to control) (keratinocytes) | Solubility at room temperature [1] | desquamating activity compared with 5-n-octanoylsalicylic acid (keratinocytes)
CCCCCCCC(=O)c1ccc(O)c(C(=O)O)c1 [Compound C1, 5-n-octanoylsalicylic acid, reference compound] | 103% | < 1.5% | –
C[Si](C)(C)CCCOc1ccc(C(=O)O)c(O)c1 [Compound C2, 2-hydroxy-4-(3-trimethylsilanylpropyloxy)benzoic acid] | 157% | 2% | much more active than the latter
C[Si](C)(C)CCCOc1ccc(O)c(C(=O)O)c1 [Compound C3, 2-hydroxy-5-(3-trimethylsilanylpropyloxy)benzoic acid] | 135% | 7% | much more active than the latter
CC(COc1ccc(C(=O)O)c(O)c1)C[Si](C)(O[Si](C)(C)C)O[Si](C)(C)C (stereo not shown) [Compound C4, 2-hydroxy-4-[2-methyl-3-[1,3,3,3-tetramethyl-1-[(trimethyl-silyl)oxy]disiloxanyl]propyloxy]benzoic acid] | – | 6% | –
CC(Cc1cccc(C(=O)O)c1O)C[Si](C)(O[Si](C)(C)C)O[Si](C)(C)C (stereo not shown) [Compound C5, 2-hydroxy-3-[2-methyl-3-[1,3,3,3-tetramethyl-1-[(trimethylsilyl)oxy]disiloxanyl]propyl]benzoic acid] | – | > 20% | –
